The values below come from ChEMBL document CHEMBL4359811, “Development of Potent and Selective Pyrazolopyrimidine IRAK4 Inhibitors” (J Med Chem, 2019).

The nature of series [1]: Protein binding in mouse plasma at 5 uM incubated for 4 hrs by LC-MS/MS analysis. The series is classed as ADME, cell-free. The following applies: read-out: PPB (converted).
Series [2] is described as follows: Apparent permeability from apical to basolateral side in MDCK cells at 10 uM incubated for 180 mins and measured up to 180 min by LC-MS/MS analysis. Particulars: dog. Type of series: ADME, cell-based, Canis lupus familiaris.
Series [3] concerns the target T1, Interleukin-1 receptor-associated kinase 4 (Homo sapiens, UniProt Q9NWZ3).
T1 sequence (Q9NWZ3 whole entry): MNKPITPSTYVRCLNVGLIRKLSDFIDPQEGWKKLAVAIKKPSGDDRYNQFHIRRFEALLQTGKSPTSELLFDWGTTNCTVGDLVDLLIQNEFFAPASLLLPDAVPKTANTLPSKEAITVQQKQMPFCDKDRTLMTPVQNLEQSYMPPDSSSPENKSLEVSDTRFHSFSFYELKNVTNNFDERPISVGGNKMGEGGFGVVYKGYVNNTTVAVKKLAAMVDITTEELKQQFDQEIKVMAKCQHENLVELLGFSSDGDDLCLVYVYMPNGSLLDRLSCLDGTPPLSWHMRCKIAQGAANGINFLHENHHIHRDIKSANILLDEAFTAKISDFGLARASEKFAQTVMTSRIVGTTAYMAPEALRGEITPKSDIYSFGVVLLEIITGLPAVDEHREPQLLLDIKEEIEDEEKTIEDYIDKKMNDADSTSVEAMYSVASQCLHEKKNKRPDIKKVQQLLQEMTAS
In words: Inhibition of IRAK4 in human THP1-Xblue-MD2-CD14 cells assessed as reduction in LPS-induced NFkappaB transcription by measuring alkaline phosphatase level preincubated for 1 hr followed by LPS stimulation and measured after 20 hrs by quanti-blue reagent based reporter assay. In general terms: In a reporter assay the amount or activity of a reporter protein is the signal.

A short description of series [4]: Oral bioavailability in mouse at 5 mg/kg. Type of series: ADME, organism-based. The following applies: in vivo.
The target in series [5] is T1, Interleukin-1 receptor-associated kinase 4. In words: Inhibition of human recombinant full length His6-tagged IRAK4 expressed in baculovirus expression system using H-KKARFSRFAGSSPSQSSMVAR as substrate incubated for 90 mins by fluorescence polarisation assay. On the technique in general: In fluorescence polarisation assays a small probe gives low polarisation when free and higher when bound to something large.

For series [6], the target named is Interleukin-1 receptor-associated kinase 1 (Homo sapiens, UniProt P51617). In words: Inhibition of human recombinant full length N-terminal His6-tagged IRAK1 (Argl94 to Ser712 residues) expressed in insect cells using H-KKARFSRFAGSSPSQSSMVAR as substrate incubated for 60 mins by fluorescence polarisation assay.
Interleukin-1 receptor-associated kinase 1, sequence (P51617 whole entry): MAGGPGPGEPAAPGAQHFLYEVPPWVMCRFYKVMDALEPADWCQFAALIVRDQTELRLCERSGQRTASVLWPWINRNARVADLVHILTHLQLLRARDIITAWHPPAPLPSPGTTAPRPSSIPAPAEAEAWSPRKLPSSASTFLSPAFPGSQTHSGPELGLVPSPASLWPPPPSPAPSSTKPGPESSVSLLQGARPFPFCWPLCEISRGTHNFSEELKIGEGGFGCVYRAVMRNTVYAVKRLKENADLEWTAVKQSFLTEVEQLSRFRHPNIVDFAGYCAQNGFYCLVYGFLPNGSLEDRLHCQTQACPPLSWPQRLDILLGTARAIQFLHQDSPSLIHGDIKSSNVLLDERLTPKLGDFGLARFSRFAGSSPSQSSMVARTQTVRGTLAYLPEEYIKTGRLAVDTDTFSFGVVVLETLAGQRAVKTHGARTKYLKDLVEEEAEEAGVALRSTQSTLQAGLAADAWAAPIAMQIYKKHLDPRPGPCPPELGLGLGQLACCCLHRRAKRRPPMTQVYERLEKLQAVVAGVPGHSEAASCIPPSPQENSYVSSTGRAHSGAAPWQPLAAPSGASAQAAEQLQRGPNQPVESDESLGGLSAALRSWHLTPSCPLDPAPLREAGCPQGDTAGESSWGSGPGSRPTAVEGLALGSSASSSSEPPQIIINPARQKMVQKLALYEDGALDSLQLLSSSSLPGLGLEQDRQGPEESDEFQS
Series [7] in a line: Cmax in mouse at 5 mg/kg, po. The series is classed as ADME, organism-based. More on the design: dose 5 mg/kg, route oral. Particulars: in vivo.
Series [8] can be described thus: Blood clearance in mouse at 1 mg/kg, iv. The series is classed as ADME, organism-based. Particulars: whole blood.
A short description of series [9]: Protein binding in human plasma at 5 uM incubated for 4 hrs by LC-MS/MS analysis. Type of series: ADME, cell-free. Particulars: read-out: PPB (converted).
Series [10] in a line: AUC (infinity) in mouse at 5 mg/kg, po. Particulars: in vivo. Type of series: ADME, organism-based. More on the design: dose 5 mg/kg, route oral, time infinity.
The nature of series [11]: Volume of distribution at steady state in mouse at 1 mg/kg, iv. Particulars: in vivo, read-out: Vdss. The series is classed as ADME, organism-based.
The target in series [12] is T2, Interleukin-1 receptor-associated kinase 4 (Homo sapiens) (UniProt Q9NWZ3).
T2 sequence (whole entry): T1 sequence (Q9NWZ3 whole entry)
The series is described as follows: Inhibition of human recombinant full length His6-tagged IRAK4 expressed in baculovirus expression system at 1 uM relative to control.

Series [13] can be described thus: AUC (infinity) in mouse at 10 mg/kg, po. Type of series: ADME, organism-based. Particulars: in vivo. More on the design: dose 10 mg/kg, route oral, time infinity.
Series [14] in a line: Oral bioavailability in mouse at 10 mg/kg. Type of series: ADME, organism-based. The following applies: in vivo.
Series [15] in a line: Oral bioavailability in mouse at 100 mg/kg administered as suspension in MCT. The following applies: in vivo. The series is classed as ADME, organism-based.
Series [16] can be described thus: Cmax in mouse at 10 mg/kg, po. The series is classed as ADME, organism-based. More on the design: dose 10 mg/kg, route oral. The following applies: in vivo.
Series [17] is described as follows: AUC (infinity) in mouse at 30 mg/kg, po. More on the design: dose 30 mg/kg, time infinity, route oral. Particulars: in vivo. The series is classed as ADME, organism-based.
A short description of series [18]: AUC (infinity) in mouse at 100 mg/kg, po administered as suspension in MCT. The series is classed as ADME, organism-based. More on the design: dose 100 mg/kg, time infinity, route oral. The following applies: in vivo.
Series [19] can be described thus: Kinetic aqueous solubility of the compound in PBS buffer at pH 7.4 incubated for 24 hrs under shaking condition by LC-CLND assay. Type of series: physicochemical. The following applies: buffer, pH 7.4, 24 h.
A short description of series [20]: Oral bioavailability in mouse at 30 mg/kg. Type of series: ADME, organism-based. The following applies: in vivo.
Series [21] in a line: Cmax in mouse at 30 mg/kg, po. The series is classed as ADME, organism-based. More on the design: dose 30 mg/kg, route oral. The following applies: in vivo.
Series [22] can be described thus: Cmax in mouse at 100 mg/kg, po administered as suspension in MCT. Type of series: ADME, organism-based. More on the design: dose 100 mg/kg, route oral. Particulars: in vivo.

SMILES strings stand for the structures. pIC50, pKi: −log10 of the molar value. A value given as a limit tells only on which side of the number the result lay.

One may read the Papp A→B as how fast a substance crosses the layer from the apical side. The term pIC50 denotes the negative decadic logarithm of the IC50, by convention in mol/L. In general, pKi refers to −log10 of the Ki, conventionally taken in molar units. For orientation: Cmax means the peak of the concentration-time curve. A word on the clearance: it is the volume of plasma or blood freed of the substance per unit of time. In general, AUC refers to the area under the concentration-time curve, a measure of exposure. As for `O=C(Nc1cc2sc(N3CCOCC3)nc2cc1N1CCC(CO)CC1)c1cnn2cccnc12`, the fraction unbound at 4 h, 5 µM is 0.01 in series [1] and 0.02 in [9]. In addition, the Papp A→B at 3 h, 10 µM in series [2] stood at 8.4 ×10⁻⁶ cm/s. Also, the negative logarithm of the IC50 (pIC50) in [3] was 8.10. Besides, the F result in series [4] (BLD = below limit of detection) is recorded as “Bld”. Also, the negative-log Ki (pKi) in [5] was 9.30; in [6], 7.62. The Cmax entry in [7] (BLD = below limit of detection) is “Bld”. The clearance in series [8] was determined as 18 mL/min/kg. Also, in [10] (BLD = below limit of detection), the AUC entry is recorded as “Bld”. Further, in series [11], the Vd stood at 0.4 L/kg.

Broadly, the inhibition is the share of the control response that was lost under treatment. As a reminder, the bioavailability is dose-corrected exposure relative to a reference, in per cent. As a reminder, the AUC(0-inf) is total exposure, with the tail of the curve extrapolated. As to `O=C(Nc1cc2sc(N3CCOCC3)nc2cc1N1CCOCC1)c1cnn2cccnc12`, the fraction unbound at 4 h, 5 µM in [1] was 0.01; in series [9], 0.05. Besides, the inhibition in [12] was greater than 70%. The exposure (AUC) in series [13] was found to be 12 µM·h; in [18] it was 40 µM·h. In addition, in series [2], the Papp A→B at 3 h, 10 µM is 12 ×10⁻⁶ cm/s. The pIC50 in series [3] is 7.12. Moreover, the F in series [14] is 25%; in series [15] it was 6%. Also, the bioavailability was 5% in series [4] and 12% in series [20]. The negative-log Ki (pKi) is 9.10 in series [5] and 6.72 in series [6]. The peak concentration (Cmax) in [16] stood at 1300 nM; in series [7] (read-out: Cmax), 200 nM; in series [21] it was 2000 nM; in series [22], 3300 nM. For the same compound, the area under the curve AUC(0-inf) stood at 11 µM·h in series [17] and 0.6 µM·h in series [10]. In addition, the Kinetic_solubility entry in [19] is on record as “Insoluble”. In [11], the Vd amounted to 0.9 L/kg.
